For orientation: MIC means the lowest concentration found to suppress growth. In general, HC50 refers to the concentration that lyses half of the red blood cells.

Each structure is given as a SMILES string. Activity calls are given as the source filed them. The rule behind the calls is not given here. A value given as a limit tells only on which side of the number the result lay.

12 compounds from ChEMBL document CHEMBL5512637, “Development of Membrane-Targeting Fluorescent 2-Phenyl-1H-phenanthro[9,10-d]imidazole-Antimicrobial Peptide Mimic Conjugates against Methicillin-Resistant Staphylococcus aureus” (J Med Chem, 2024) can be followed below.

Series [1] has as its system Staphylococcus aureus. Kind of series: Antibacterial activity against Staphylococcus aureus ATCC 29213 incubated for 16 to 18 hrs CLSI based by microbroth dilution assay. The settings on record: time 16-18 hrs. The series is classed as functional. (In general: In broth dilution the organism is exposed to a series of concentrations in liquid medium.)
The test system of series [2] is Escherichia coli. In words: Antibacterial activity against Escherichia coli ATCC 25922 incubated for 16 to 18 hrs CLSI based by microbroth dilution assay. The series is classed as functional. The settings on record: time 16-18 hrs.
Series [3] concerns Staphylococcus aureus. In words: Antibacterial activity against methicillin-resistant Staphylococcus aureus clinical isolate M-1 incubated for 16 to 18 hrs CLSI based by microbroth dilution assay. Type of series: functional. The settings on record: time 16-18 hrs.
In series [4] the test system is Staphylococcus aureus. Kind of series: Antibacterial activity against methicillin-resistant Staphylococcus aureus clinical isolate M-2 incubated for 16 to 18 hrs CLSI based by microbroth dilution assay. The settings on record: time 16-18 hrs. The series is classed as functional.
Series [5] has as its system Staphylococcus aureus. In words: Antibacterial activity against methicillin-resistant Staphylococcus aureus clinical isolate M-3 incubated for 16 to 18 hrs CLSI based by microbroth dilution assay. Type of series: functional. The settings on record: time 16-18 hrs.
Series [6] concerns Staphylococcus aureus. Kind of series: Antibacterial activity against methicillin-resistant Staphylococcus aureus clinical isolate M-4 incubated for 16 to 18 hrs CLSI based by microbroth dilution assay. The series is classed as functional. The settings on record: time 16-18 hrs.
Series [7] deals with Staphylococcus aureus. In words: Antibacterial activity against methicillin-resistant Staphylococcus aureus clinical isolate M-5 incubated for 16 to 18 hrs CLSI based by microbroth dilution assay. The series is classed as functional. The settings on record: time 16-18 hrs.
The subject of series [8] is Staphylococcus aureus. Kind of series: Antibacterial activity against methicillin-resistant Staphylococcus aureus clinical isolate M-6 incubated for 16 to 18 hrs CLSI based by microbroth dilution assay. The series is classed as functional. The settings on record: time 16-18 hrs.
In series [9] the test system is Staphylococcus aureus. Kind of series: Antibacterial activity against methicillin-resistant Staphylococcus aureus clinical isolate M-7 incubated for 16 to 18 hrs CLSI based by microbroth dilution assay. The settings on record: time 16-18 hrs. The series is classed as functional.
The subject of series [10] is Staphylococcus aureus. In words: Antibacterial activity against methicillin-resistant Staphylococcus aureus clinical isolate M-8 incubated for 16 to 18 hrs CLSI based by microbroth dilution assay. Type of series: functional. The settings on record: time 16-18 hrs.
In series [11] the test system is Staphylococcus aureus. In words: Antibacterial activity against methicillin-resistant Staphylococcus aureus clinical isolate M-9 incubated for 16 to 18 hrs CLSI based by microbroth dilution assay. The series is classed as functional. The settings on record: time 16-18 hrs.
Series [12] deals with Staphylococcus aureus. In words: Antibacterial activity against methicillin-resistant Staphylococcus aureus clinical isolate M-10 incubated for 16 to 18 hrs CLSI based by microbroth dilution assay. The series is classed as functional. The settings on record: time 16-18 hrs.
The nature of series [13]: Hemolytic activity in sheep erythrocytes incubated for 1 hr by absorbance based assay. Type of series: toxicity, cell-based, Ovis aries, Erythrocyte.
The nature of series [14]: Selectivity index, ratio of HC50 for sheep erythrocytes to MIC for Staphylococcus aureus ATCC 29213. The settings on record: read-out: Selectivity Index. The series is classed as toxicity.
Series [15] deals with Staphylococcus aureus. Kind of series: Bactericidal activity against Staphylococcus aureus ATCC 29213 assessed as fluorescent signal at MIC incubated for 20 mins. The series is classed as functional, organism-based.
Series [16] relates to Staphylococcus aureus. Kind of series: Bactericidal activity against Staphylococcus aureus ATCC 29213 assessed as increase in fluorescence intensity at MIC incubated for 180 mins. The series is classed as functional, organism-based.

`CCCCCNC(=O)C[N+](C)(C)CCCn1c(-c2ccc(N(C)C)cc2)nc2c3ccccc3c3ccccc3c21.[Br-]`: the MIC in series [1] amounted to 8 µg/mL; in series [2] it was 64 µg/mL; in series [3], 8 µg/mL; in series [4], 8 µg/mL; in series [5], 8 µg/mL; in [6], 4 µg/mL. Besides, the MIC turned out to be 8 µg/mL in series [7]; 8 µg/mL in series [8]; 4 µg/mL in [9]; 8 µg/mL in series [10]; 4 µg/mL in series [11]; 8 µg/mL in series [12]. For the same compound, the HC50 at 1 h in series [13] is more than 640 µg/mL. Further, the selectivity ratio in [14] is more than 80. In addition, the outcome in series [15] was Active.

With `CN(C)c1ccc(-c2nc3c4ccccc4c4ccccc4c3n2CCCCBr)cc1`, the MIC in series [1], in [2], in [3], in series [4], in series [5] and in series [6] was more than 64 µg/mL each time. Moreover, the MIC in series [7], in [8], in series [9], in series [10], in [11] and in series [12] was more than 64 µg/mL each time. Further, the result in series [16] was inactive.

Consider `CCCCCCNC(=O)C[N+](C)(C)CCCCCn1c(-c2ccc(N(C)C)cc2)nc2c3ccccc3c3ccccc3c21.[Br-]`, for which the MIC worked out at 2 µg/mL in series [1]; 64 µg/mL in series [2]; 8 µg/mL in series [3]; 4 µg/mL in [4]; 2 µg/mL in series [5]; 1 µg/mL in series [6]. Moreover, the MIC in series [7] was 8 µg/mL; in series [8] it was 2 µg/mL; in [9] it was 1 µg/mL; in [10], 2 µg/mL; in series [11] it was 4 µg/mL; in [12], 8 µg/mL. In addition, the concentration for 50% haemolysis (HC50) at 1 h in series [13] was 442 µg/mL. Further, the selectivity ratio in series [14] was 221.

On to `CCCCN(CCCC)C(=O)C[N+](C)(C)CCCCn1c(-c2ccc(N(C)C)cc2)nc2c3ccccc3c3ccccc3c21.[Br-]`, for which the MIC in series [1] amounted to 1 µg/mL; in series [2], 64 µg/mL; in series [3], 2 µg/mL; in series [4], 1 µg/mL; in series [5] it was 0.5 µg/mL; in [6], 1 µg/mL. In addition, the MIC worked out at 2 µg/mL in [7]; 0.5 µg/mL in [8]; 0.5 µg/mL in series [9]; 1 µg/mL in series [10]; 1 µg/mL in series [11]; 1 µg/mL in [12]. This compound also came in with an HC50 at 1 h in [13] of 79.5 µg/mL. For the same compound, the selectivity ratio in series [14] stood at 79.5.

As to `CCCN(CCC)C(=O)C[N+](C)(C)CCCCn1c(-c2ccc(N(C)C)cc2)nc2c3ccccc3c3ccccc3c21.[Br-]`, the MIC amounted to 4 µg/mL in [1]; 128 µg/mL in series [2]; 4 µg/mL in series [3]; 4 µg/mL in [4]; 4 µg/mL in series [5]; 4 µg/mL in [6]. Also, the MIC in series [7], in series [8], in series [9], in series [10], in series [11] and in [12] was 4 µg/mL throughout. Further, in series [13], the HC50 at 1 h worked out at 213 µg/mL. The selectivity ratio in series [14] was 53.3.

For `CN(C)c1ccc(-c2nc3c4ccccc4c4ccccc4c3n2CCC[N+](C)(C)CC(=O)N2CCSCC2)cc1.[Br-]`, the MIC in [1] is 64 µg/mL; in series [2], more than 128 µg/mL; in series [3], 64 µg/mL; in series [4], 64 µg/mL; in series [5] it was 64 µg/mL; in series [6] it was 64 µg/mL. Also, the MIC in series [7] amounted to 64 µg/mL; in [8] it was 64 µg/mL; in series [9] it was 32 µg/mL; in series [10] it was 128 µg/mL; in [11] it was 64 µg/mL; in [12] it was 64 µg/mL. For the same compound, in series [13], the HC50 at 1 h was 357 µg/mL. Also, the selectivity ratio in series [14] turned out to be 5.6.

In the case of `CCCCCCNC(=O)C[N+](C)(C)CCCn1c(-c2ccc(N(C)C)cc2)nc2c3ccccc3c3ccccc3c21.[Br-]`, the MIC was 64 µg/mL in [1]; more than 128 µg/mL in [2]; 64 µg/mL in series [3]; 128 µg/mL in series [4]; 64 µg/mL in series [5]; 64 µg/mL in [6]. The MIC in [7] stood at 64 µg/mL; in series [8], 128 µg/mL; in series [9] it was 64 µg/mL; in series [10], 128 µg/mL; in series [11] it was 64 µg/mL; in [12], 64 µg/mL. This compound also registered an HC50 at 1 h in series [13] of more than 640 µg/mL. Also, in series [14], the selectivity ratio is more than 10.

In the case of `CCCNC(=O)C[N+](C)(C)CCCn1c(-c2ccc(N(C)C)cc2)nc2c3ccccc3c3ccccc3c21.[Br-]`, the MIC in [1] was 32 µg/mL; in series [2], more than 128 µg/mL; in series [3] it was 64 µg/mL; in series [4], 32 µg/mL; in [5], 64 µg/mL; in [6], 32 µg/mL. Further, the MIC in [7] was 64 µg/mL; in series [8], 64 µg/mL; in [9], 32 µg/mL; in series [10] it was 64 µg/mL; in series [11], 32 µg/mL; in [12], 64 µg/mL. The HC50 at 1 h in [13] was more than 640 µg/mL. Further, the selectivity ratio in series [14] was more than 20.

Take `CCCCCNC(=O)C[N+](C)(C)CCCCCn1c(-c2ccc(N(C)C)cc2)nc2c3ccccc3c3ccccc3c21.[Br-]`: the MIC in series [1] stood at 2 µg/mL; in series [2], 64 µg/mL; in series [3] it was 4 µg/mL; in series [4], 2 µg/mL; in series [5] it was 2 µg/mL; in series [6], 2 µg/mL. Further, the MIC in [7] was determined as 2 µg/mL; in [8] it was 2 µg/mL; in series [9] it was 2 µg/mL; in [10], 2 µg/mL; in series [11] it was 2 µg/mL; in series [12], 4 µg/mL. In [13], the HC50 at 1 h came to 572 µg/mL. In addition, in series [14], the selectivity ratio was 286.

As for `CCCCCCNC(=O)C[N+](C)(C)CCCCn1c(-c2ccc(N(C)C)cc2)nc2c3ccccc3c3ccccc3c21.[Br-]`, the MIC in [1] stood at 2 µg/mL; in series [2], 32 µg/mL; in series [3] it was 2 µg/mL; in series [4] it was 2 µg/mL; in [5], 2 µg/mL; in series [6], 2 µg/mL. For the same compound, the MIC in series [7] came to 2 µg/mL; in series [8], 2 µg/mL; in [9] it was 1 µg/mL; in series [10], 1 µg/mL; in series [11], 1 µg/mL; in series [12], 2 µg/mL. Further, the HC50 at 1 h in series [13] was determined as 353 µg/mL. Further, the selectivity ratio in series [14] stood at 176.

For `CCN(CC)C(=O)C[N+](C)(C)CCCCCn1c(-c2ccc(N(C)C)cc2)nc2c3ccccc3c3ccccc3c21.[Br-]`, the MIC in [1] is 16 µg/mL; in series [2], 128 µg/mL; in [3] it was 8 µg/mL; in series [4] it was 8 µg/mL; in series [5], 8 µg/mL; in [6], 8 µg/mL. Also, the MIC in series [7], in [8], in series [9], in series [10], in series [11] and in series [12] was 8 µg/mL in each case. Besides, the HC50 at 1 h in [13] came to 1080 µg/mL. For the same compound, the selectivity ratio in series [14] worked out at 67.8.

For `CC(C)N(C(=O)C[N+](C)(C)CCCn1c(-c2ccc(N(C)C)cc2)nc2c3ccccc3c3ccccc3c21)C(C)C.[Br-]`, the MIC was 2 µg/mL in [1]; more than 128 µg/mL in [2]; 2 µg/mL in [3]; 2 µg/mL in [4]; 2 µg/mL in series [5]; 2 µg/mL in series [6]. Also, the MIC in series [7] was determined as 2 µg/mL; in [8] it was 2 µg/mL; in series [9] it was 2 µg/mL; in series [10], 4 µg/mL; in [11] it was 2 µg/mL; in series [12], 2 µg/mL. For the same compound, the HC50 at 1 h in series [13] amounted to 68.5 µg/mL. For the same compound, in series [14], the selectivity ratio stood at 8.6.
